Like-named read-outs stand apart in the source and are kept apart here. Residues, ends and D or L forms follow the SMILES beside them. No end group written: not given here.
Tests used:
Assay type in all cases: cell-based
[1] = test system: red blood cells (erythrocytes); assay: Hemolytic activity of the peptides (hemoglobin release, absorbance at 412 nm)
Method: Hemolysis as defined herein is an in vitro assay where the compounds tendency to lyse red blood cells is determined. Presumably, the compounds that are less hemolytic will be less toxic in vivo. Increasing amounts of compound are added to solutions containing red blood cells and left for a specified time and then lysis is determined spectrophotometrically by measuring hemoglobin release.
A small volume of a suspension of erythrocytes (about 100 million) is kept on ice with a specific amount of lytic peptide. The cells are then placed in a 37° C. water bath for 10 min, vortexed and centrifuged at 1000 g for 2 min. The supernatant was removed and the amount of hemoglobin that was released was determined by the samples' absorbance at 412 nm. Control values without added peptide were subtracted from the absorbance readings.
The numerical difference between the value of the mean of hemolysis and the mean of the activity is a useful way to determine those peptides having the most desired activity.

bacteria = assay: Antibacterial activity of the peptides, broth microdilution MIC, mean activity (Table II); details: overnight incubation (18 to 24 h)
Method: (§1) Minimum Inhibitory Concentration or MIC for the purpose of this invention is the lowest concentration of an antimicrobial that will inhibit the visible growth of a microorganism after overnight incubation. Minimum inhibitory concentrations are important in diagnostic laboratories to confirm resistance of microorganisms to an antimicrobial agent and also to monitor the activity of new antimicrobial agents. A MIC is generally regarded as the most basic laboratory measurement of the activity of an antimicrobial agent against an organism. MBC is defined as the lowest concentration of an antimicrobial agent needed to kill 99.9% of the initial organism inoculum. Presently, specific guidelines for interpretation are not available; therefore, a clinician knowledgeable in both bactericidal testing and infectious diseases should be available to interpret the results.
(§2) MICs were determined by the broth microdilution method described by the National Committee for Clinical Laboratory Standards (17). Serial twofold dilutions of each peptide solution were prepared (final volume, […]) in microtiter trays with appropriate medium. Each dilution series included control wells containing bacteria without peptide. A total of […] of the adjusted inoculum (100,000 organisms) was added to each well, and then the trays were incubated at
(§3) in ambient air overnight (18 to 24 h). The MIC of each peptide for each isolate was read as the lowest concentration of peptide that inhibited visible growth of the organism.
The above in vitro tests and analyses were conducted on a set of designed peptides of the present invention; and, for comparative purposes, naturally derived molecules.

[2] = test system: agrobacterium, Sinorhizobium, Xanthomonas; assay: MIC by broth microdilution, mean over B1-B3; details: mean of MIC for B1, B2, B3
Method: as §1, §2, §3

Sinorhizobium = assay: MIC by broth microdilution; design: unit not given here
Method: as §1, §2, §3

agrobacterium = assay: MIC by broth microdilution; design: unit not given here
Method: as §1, §2, §3

Xanthomonas = assay: MIC by broth microdilution; design: unit not given here
Method: as §1, §2, §3

Fusarium moniliforme = assay: Antimicrobial activity against pathogens (MIC80 / MBC100); details: concentration of TP necessary to limit growth by 80%
Description: (§4) A comparison of antimicrobial activity for these two naturally occurring peptides against various pathogens (combined fungal and bacterial) is summarized below

Xanthomonas campestris = assay: as above; details: concentration of TP necessary to limit growth by 80%
Description: as §4

Aspergillus flavus = assay: as above; details: concentration of TP necessary to limit growth by 80%
Description: as §4

[3] = erythrocytes, 37° C. for 10 min

Compound	Mean of Hemolysis [1] [µM]	Mean Activity (bacteria) [µM]	other results
CC[C@H](C)[C@H](NC(=O)[C@H](CCCNC(=N)N)NC(=O)[C@H](C)NC(=O)[C@H](CCCCN)NC(=O)[C@@H](NC(=O)[C@H](CCCCN)NC(=O)[C@H](CC(C)C)NC(=O)[C@H](CCCNC(=N)N)NC(=O)[C@@H](NC(=O)[C@H](CCCNC(=N)N)NC(=O)[C@H](C)NC(=O)[C@H](CCCCN)NC(=O)[C@@H](NC(=O)[C@H](CCCNC(=N)N)NC(=O)[C@@H](N)Cc1ccccc1)C(C)C)[C@@H](C)CC)C(C)C)C(=O)N[C@@H](CCCNC(=N)N)C(=O)N[C@@H](CC(C)C)C(=O)O [AGM 179] (H-FRVKARIRLKVKARIRL-OH; N-terminus and C-terminus assumed)	2.1	–	–
CC[C@H](C)[C@H](NC(=O)[C@@H]1CCCN1C(=O)[C@H](CCCNC(=N)N)NC(=O)[C@@H]1CCCN1C(=O)[C@H](Cc1cnc[nH]1)NC(=O)[C@H](CO)NC(=O)[C@@H](NC(=O)[C@@H]1CCCN1C(=O)[C@H](CCCNC(=N)N)NC(=O)[C@@H]1CCCN1C(=O)[C@H](CO)NC(=O)[C@H](Cc1ccc(O)cc1)NC(=O)[C@@H]1CCCN1C(=O)[C@H](CCCNC(=N)N)NC(=O)[C@@H]1CCCN1C(=O)[C@H](CCCCN)NC(=O)CN)[C@@H](C)O)C(=O)N[C@@H](CCCNC(=N)N)C(=O)N[C@H](C(=O)O)C(C)C [Drosocin] (H-GKPRPYSPRPTSHPRPIRV-OH)	1.6	21	–
Pyrrhocoricin (H): naturally derived molecule tested for comparative purposes (VDKGSYLPRPTPPRPIYNRN; UniProt P37362 1-20, looked up)	–	26.67	Mean of Hemolysis [1, 3]: 1.6 µM
KFAKKFKKFAKKFCFKGLCAFKKAFKKFKKAF [AGM 184]	–	–	Mean [2]: 0.77; MIC for B2 (Sinorhizobium): 0.3; MIC for B1 (agrobacterium): 1; MIC for B3 (Xanthomonas): 1
CC[C@H](C)[C@H](NC(=O)[C@H](CCCNC(=N)N)NC(=O)[C@H](CC(C)C)NC(=O)[C@H](CCCCN)NC(=O)[C@@H](NC(=O)[C@H](CCCCN)NC(=O)[C@H](C)NC(=O)[C@H](CCCNC(=N)N)NC(=O)[C@@H](NC(=O)[C@H](CCCNC(=N)N)NC(=O)[C@@H](N)Cc1ccccc1)[C@@H](C)CC)C(C)C)C(=O)N[C@@H](CCCNC(=N)N)C(=O)N[C@@H](C)C(=O)N[C@@H](CCCCN)C(=O)N[C@H](C(=O)N[C@@H](CCCNC(=N)N)C(=O)N[C@@H](CC(C)C)C(=O)O)C(C)C [AGM 178] (H-FRIRAKVKLRIRAKVRL-OH; N-terminus and C-terminus assumed)	1.2	–	–
CC[C@H](C)[C@H](NC(=O)[C@H](CCCNC(=N)N)NC(=O)[C@@H]1CCCN1C(=O)[C@H](Cc1cnc[nH]1)NC(=O)[C@@H]1CCCN1C(=O)[C@@H]1CCCN1C(=O)[C@H](CCCNC(=N)N)NC(=O)[C@@H]1CCCN1C(=O)[C@H](CCC(N)=O)NC(=O)[C@@H]1CCCN1C(=O)[C@@H](NC(=O)[C@H](Cc1ccc(O)cc1)NC(=O)[C@@H](NC(=O)[C@@H]1CCCN1C(=O)[C@H](CCCNC(=N)N)NC(=O)[C@H](CC(N)=O)NC(=O)[C@H](CC(N)=O)NC(=O)CN)C(C)C)[C@@H](C)CC)C(=O)O [Apidaecin IA] (H-GNNRPVYIPQPRPPHPRI-OH)	1.6	20.67	–
CC[C@H](C)[C@H](NC(=O)CNC(=O)[C@H](CC(N)=O)NC(=O)[C@H](CCCNC(=N)N)NC(=O)[C@@H](NC(=O)[C@H](CC(N)=O)NC(=O)[C@H](CCCNC(=N)N)NC(=O)CNC(=O)[C@H](CCSC)NC(=O)[C@H](CCCCN)NC(=O)[C@H](CCC(=O)O)NC(=O)[C@@H](NC(=O)[C@H](CCCCN)NC(=O)[C@H](CCCCN)NC(=O)[C@H](Cc1ccccc1)NC(=O)[C@@H](NC(=O)[C@H](CCCCN)NC(=O)[C@H](Cc1c[nH]c2ccccc12)NC(=O)[C@@H](N)CCCCN)C(C)C)[C@@H](C)CC)[C@@H](C)CC)C(=O)N[C@H](C(=O)N[C@@H](CCCCN)C(=O)N[C@@H](C)C(=O)NCC(=O)N1CCC[C@H]1C(=O)N[C@@H](C)C(=O)N[C@H](C(=O)N[C@@H](C)C(=O)N[C@H](C(=O)N[C@@H](CC(C)C)C(=O)NCC(=O)N[C@@H](CCC(=O)O)C(=O)N[C@@H](C)C(=O)N[C@@H](CCCCN)C(=O)N[C@@H](C)C(=O)N[C@@H](CC(C)C)C(N)=O)C(C)C)[C@@H](C)CC)C(C)C [Cecropin B] (H-KWKVFKKIEKMGRNIRNGIVKAGPAIAVLGEAKAL-NH2)	1.2	–	–
Pyrrhocoricin (D): naturally derived molecule tested for comparative purposes (VDKGSYLPRPTPPRPIYNRN; not fully specified; UniProt P37362 1-20, looked up)	–	23.33	Mean of Hemolysis [1, 3]: 1.9 µM
KIKARLCLGKFCIKARLK [AGM 182]	–	–	Mean [2]: 0.77; MIC for B2 (Sinorhizobium): 0.3; MIC for B1 (agrobacterium): 1; MIC for B3 (Xanthomonas): 1
CC[C@H](C)[C@H](NC(=O)[C@H](CCCCN)NC(=O)[C@@H](NC(=O)[C@H](CCCNC(=N)N)NC(=O)[C@H](CC(C)C)NC(=O)[C@H](CCCNC(=N)N)NC(=O)[C@H](C)NC(=O)[C@H](CCCCN)NC(=O)[C@@H](NC(=O)[C@H](CCCCN)NC(=O)[C@@H](N)Cc1ccccc1)[C@@H](C)CC)C(C)C)C(=O)N[C@@H](CCCCN)C(=O)N[C@@H](C)C(=O)N[C@@H](CCCNC(=N)N)C(=O)N[C@@H](CC(C)C)C(=O)N[C@@H](CCCCN)C(=O)N[C@@H](CC(C)C)C(=O)O [AGM 176] (H-FKIKARLRVKIKARLKL-OH; N-terminus and C-terminus assumed)	1.3	–	–
Magainin I: Magainins: 23 amino acids in length, derived from the African Clawed Frog (GIGKFLHSAGKFGKAFVGEIMKS; Magainin-1; UniProt P11006 37-59, looked up)	1.3	30	–
KARLKFCFKGLCIKIKVR [AGM 181]	–	–	Mean [2]: 0.77; MIC for B2 (Sinorhizobium): 0.3; MIC for B1 (agrobacterium): 1; MIC for B3 (Xanthomonas): 1
Cecropin A	–	3.83	–
KAFKKAFKKFKKACFKGLCAKKFKKFAKKFAK [AGM 183]	–	–	Mean [2]: 1.44; MIC for B2 (Sinorhizobium): 0.3; MIC for B1 (agrobacterium): 3; MIC for B3 (Xanthomonas): 1
LL-37	5.1	1	–
CC[C@H](C)[C@H](NC(=O)[C@H](CCCCN)NC(=O)[C@H](C)NC(=O)[C@H](CCCNC(=N)N)NC(=O)[C@H](CC(C)C)NC(=O)[C@H](CCCNC(=N)N)NC(=O)[C@@H](NC(=O)[C@H](CCCCN)NC(=O)[C@@H](NC(=O)[C@H](CCCCN)NC(=O)[C@H](C)NC(=O)[C@H](CCCNC(=N)N)NC(=O)[C@H](CC(C)C)NC(=O)[C@H](CCCCN)NC(=O)[C@@H](N)Cc1ccccc1)C(C)C)[C@@H](C)CC)C(=O)N[C@@H](CCCCN)C(=O)N[C@@H](CC(C)C)C(=O)O [AGM 155] (H-FKLRAKVKIRLRAKIKL-OH; N-terminus and C-terminus assumed)	1.6	–	–
Magainin II	1.5	30	–
CC[C@H](C)[C@H](NC(=O)CN)C(=O)NCC(=O)N[C@@H](C)C(=O)N[C@H](C(=O)N[C@@H](CC(C)C)C(=O)N[C@@H](CCCCN)C(=O)N[C@H](C(=O)N[C@@H](CC(C)C)C(=O)N[C@H](C(=O)N[C@H](C(=O)NCC(=O)N[C@@H](CC(C)C)C(=O)N1CCC[C@H]1C(=O)N[C@@H](C)C(=O)N[C@@H](CC(C)C)C(=O)N[C@H](C(=O)N[C@@H](CO)C(=O)N[C@@H](Cc1c[nH]c2ccccc12)C(=O)N[C@H](C(=O)N[C@@H](CCCCN)C(=O)N[C@@H](CCCNC(=N)N)C(=O)N[C@@H](CCCCN)C(=O)N[C@@H](CCCNC(=N)N)C(=O)N[C@@H](CCC(N)=O)C(=O)N[C@@H](CCC(N)=O)C(N)=O)[C@@H](C)CC)[C@@H](C)CC)[C@@H](C)O)[C@@H](C)O)C(C)C)C(C)C [Melittin]	–	1.33	Mean of Hemolysis [1, 3]: 100.8 µM
Histatin-5	1.8	30	–
KWCFRVCYRGICYRRCR [TP, defensin-like peptide found in the hemolymph of the horseshoe crab]	–	0.3	Mean of Hemolysis [1, 3]: 3 µM; TP MIC80 (Fusarium moniliforme): 21 µM; TP MIC80 (Xanthomonas campestris): 0.77 µM; TP MIC80 (Aspergillus flavus): 34 µM
Indolicidin	2	5.33	–
